The target of this assay is T1, ECHS1 (short-chain enoyl-CoA hydratase) (Homo sapiens, UniProt P30084).
T1 sequence (P30084 28-290): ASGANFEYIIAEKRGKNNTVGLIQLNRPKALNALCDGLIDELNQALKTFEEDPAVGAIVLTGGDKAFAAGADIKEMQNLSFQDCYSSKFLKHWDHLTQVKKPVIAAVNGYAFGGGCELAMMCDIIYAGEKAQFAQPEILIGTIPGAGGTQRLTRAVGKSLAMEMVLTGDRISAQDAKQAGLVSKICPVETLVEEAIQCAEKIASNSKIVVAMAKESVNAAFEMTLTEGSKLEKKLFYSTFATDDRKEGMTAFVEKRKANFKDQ
Briefly: SPR. The class given is binding.
For `CC(=O)CC(=O)SCCNC(=O)CCNC(=O)[C@H](O)C(C)(C)COP(=O)(O)OP(=O)(O)OC[C@H]1O[C@@H](n2cnc3c(N)ncnc32)[C@H](O)[C@@H]1OP(=O)(O)O` [acetoacetyl-CoA], binding was characterised by a dissociation constant (Kd) of 2690 nM.
Regarding `C/C=C/C(=O)SCCNC(=O)CCNC(=O)[C@H](O)C(C)(C)COP(=O)(O)OP(=O)(O)OC[C@H]1O[C@@H](n2cnc3c(N)ncnc32)[C@H](O)[C@@H]1OP(=O)(O)O` [crotonyl-CoA], the affinity, expressed as Kd, was 863 nM.
Under `CCCCCC(=O)SCCNC(=O)CCNC(=O)[C@H](O)C(C)(C)COP(=O)(O)OP(=O)(O)OC[C@H]1O[C@@H](n2cnc3c(N)ncnc32)[C@H](O)[C@@H]1OP(=O)(O)O` [hexanoyl-CoA] stands 2570 nM; under `CCCCCCCC(=O)SCCNC(=O)CCNC(=O)[C@H](O)C(C)(C)COP(=O)(O)OP(=O)(O)OC[C@H]1O[C@@H](n2cnc3c(N)ncnc32)[C@H](O)[C@@H]1OP(=O)(O)O` [octanoyl-CoA], 2640 nM.

The values are drawn from article PMC12003839 (Communications Biology, 2025).
